# According to patent publication US7368129B1, “Amphiphilic materials and liposome formulations thereof” (Nutrimed Biotech, priority 1996, dated 2008):
# Assay: X-ray diffraction of hydrated amphiphile and phosphatidylcholine mixtures at constant osmotic pressure
# Type: physicochemical
# Details: 20° C., constant osmotic pressure 1.6×10^5 dyne/cm^2; 20 mole percent Oleoyl-PEG(1500)-Oleoyl; pure SOPC = 0 mole % additive
# Text: Unoriented multilamellar fully hydrated lipid preparations in sealed glass capillaries held in a point collimated X-ray beam produce recordable “powder” diffraction patterns. The overall lamellar repeat period calculated from X-ray diffraction pattern comprises discernible double lipid chain thickness and interbilayer separation arising from the aqueous fluid in contact with the polar head groups. For osmotically stressed multilamellar preparations, the interbilayer separation decreases as a function of applied pressure and reaches a minimum approaching the closest contact for the head groups of the opposing phospholipids. […]
# In the multilamellar vesicles prepared from phospholipid compositions doped with the novel amphiphiles, the bulky head group residues are expected to reside in and enlarge (widen) the interbilayer gap. Therefore, in comparative studies on preparations with and without a selected amphiphile, the interbilayer repeat distances are measured. In addition, the effect of osmotic pressures, produced by 4% PVP (up to ca. 1.6×10^5 dyne/cm^2), is evaluated. […]
# X-ray diffraction was used to characterize the liposomes (MLVs) prepared in EXAMPLE 1 by hydration of selected novel amphiphile and PC mixtures. […] Osmotic pressures for PVP solutions are recorded in the literature (Parsegian et al., 1986). […]
smiles,measurement,value
"CCCCCCCC/C=C\CCCCCCCC(=O)O[C@H](COC(=O)CCCCCCCCCCCCCCCCC)COP(=O)([O-])OCC[N+](C)(C)C [SOPC, 1-stearoyl-2-oleoyl-sn-glycero-3-phosphocholine]",lamellar repeat period d100 in SOPC as a function of mole percent additive,58 Å
